Results as given in patent publication US8436039B2, “Inhibitors of the ATB(0,+) transporter and uses thereof” (Georgia Health Sciences University Research Institute, Inc., priority 2008, dated 2013).
Several values for one entry are separate records, joined by “and”; a condition that tells them apart may be missing. Equal entries are not always repeated.

Target: T1, human ATB^0,+ (Homo sapiens, UniProt Q9UN76)
T1 construct: The human ATB^0,+ cDNA was cloned from an MCF7 cell (a human mammary epithelial cancer cell line) cDNA library; expressed in transfected cells; host or cells: Xenopus laevis oocytes injected with 50 ng capped cRNA
T1 sequence (Q9UN76 1-642): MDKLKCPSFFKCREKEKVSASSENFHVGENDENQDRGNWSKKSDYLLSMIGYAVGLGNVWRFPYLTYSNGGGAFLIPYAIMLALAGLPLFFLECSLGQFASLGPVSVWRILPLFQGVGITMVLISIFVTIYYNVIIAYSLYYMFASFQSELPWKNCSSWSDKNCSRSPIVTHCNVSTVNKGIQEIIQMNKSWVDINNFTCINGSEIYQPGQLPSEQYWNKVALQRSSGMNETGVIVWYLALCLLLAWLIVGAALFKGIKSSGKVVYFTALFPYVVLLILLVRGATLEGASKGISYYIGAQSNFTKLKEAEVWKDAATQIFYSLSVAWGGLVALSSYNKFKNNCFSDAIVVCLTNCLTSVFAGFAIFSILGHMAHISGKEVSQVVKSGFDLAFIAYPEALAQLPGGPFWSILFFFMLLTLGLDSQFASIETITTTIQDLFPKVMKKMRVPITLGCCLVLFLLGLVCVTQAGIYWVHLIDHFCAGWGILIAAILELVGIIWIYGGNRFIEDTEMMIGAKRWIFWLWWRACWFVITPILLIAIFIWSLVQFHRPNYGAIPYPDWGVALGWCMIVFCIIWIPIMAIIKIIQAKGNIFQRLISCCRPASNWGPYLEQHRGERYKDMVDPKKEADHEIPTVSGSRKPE
Assay: Block of inward currents induced by amino acid mixture simulating plasma in X. laevis oocytes expressing human ATB^0,+
Assay type: cell-based
Experimental: Capped cRNA from the cloned mouse or human ATB^0,+ cDNA was synthesized using the mMESSAGE mMACHTNE kit (Ambion, Austin, Tex., U.S.A.). Mature oocytes (stage IV or V) from X. laevis were injected with 50 ng of cRNA. Uninjected oocytes served as controls. The oocytes were used for electrophysiological studies 3-6 days after cRNA injection. Electrophysiological studies were performed by the two-microelectrode voltage-clamp method (Nakanishi et al., 2001, J. Physiol. 532, 297-304). Oocytes were superfused with an NaCl-containing buffer (100 mM NaCl, 2 mM KCl, 1 mM MgCl2, 1 mM CaCl2, 3 mM Hepes, 3 mM Mes and 3 mM Tris, pH 7.5), followed by the same buffer containing tryptophan derivatives. The membrane potential was clamped at −50 mV. The differences between the steady-state currents measured in the presence and absence of substrates were considered as the substrate-induced currents. In the analysis of the saturation kinetics of substrate-induced currents, the kinetic parameter K0.5 (i.e. substrate concentration necessary for induction of half-maximal current) was calculated by fitting the values of the substrate-induced currents to the Michaelis-Menten equation. The Na^+ and Cl^− activation kinetics of substrate-induced currents were analysed by measuring the substrate-specific currents in the presence of increasing concentrations of Na^+ (concentration of Cl^− kept constant at 100 mM) or in the presence of increasing concentrations of Cl^− (concentration of Na^+ kept constant at 100 mM). In these experiments, the composition of the superfusion buffer was modified to contain 2 mM potassium gluconate, 1 mM MgSO4 and 1 mM calcium gluconate in place of KCl, MgCl2 and CaCl2 respectively. The data from these experiments were analysed by the Hill equation to determine the Hill coefficient (h; number of Na^+ and Cl^− ions involved in the activation process). The kinetic parameters were determined by using the commercially available computer program Sigma Plot, version 6.0 (SPSS, Chicago, Ill., U.S.A.). Uninjected oocytes were used to determine the currents induced by tryptophan derivatives due to entry via transporters that may be constitutively expressed in the oocytes. At a concentration of 2.5 mM, the currents induced by these compounds were in the range of 0-3 nA in uninjected oocytes. These currents were less than 2% of the corresponding currents induced in ATB^0,+ cRNA-injected oocytes. Therefore the endogenous currents associated with the constitutively expressed transporters were not considered in the analysis of kinetic parameters of ATB^0,+ transport activity.
These studies with α-methyl-DL-tryptophan as a blocker of ATB^0,+ were carried out with L-tryptophan at sub-saturating concentrations. […] Therefore, using the Xenopus oocyte heterologous expression system, we monitored the transport activity of human ATB^0,+ in the presence of an amino acid mixture consisting of 18 different amino acids, each at its respective physiological concentration found in plasma (Glew et al., 2004, Clin. Chim. Acta 342, 179-185) (Table 1). Inward currents were detected under these conditions in oocytes expressing human ATB^0,+. […] We then monitored the ability of α-methyl-DL-tryptophan to block the inward currents induced by the same mixture of amino acids in oocytes expressing human ATB^0,+ (FIG. 4B). […]

SMILES: CC(N)(Cc1c[nH]c2ccccc12)C(=O)O (racemic) [α-methyl-DL-tryptophan]
- inhibition at 2500 µM (2.5 mM, 18 amino acids at plasma concentrations, read-out: maximal inhibition of amino acid mixture-induced currents): ~85%
- IC50 (18 amino acids at normal plasma concentrations, read-out: concentration necessary to elicit 50% of maximal inhibition (IC50) of amino acid mixture-induced currents): ~250 µM and 255 µM
